Target: T1, Histone acetyltransferase KAT8 (Homo sapiens, UniProt Q9H7Z6)
T1 sequence (Q9H7Z6 whole entry): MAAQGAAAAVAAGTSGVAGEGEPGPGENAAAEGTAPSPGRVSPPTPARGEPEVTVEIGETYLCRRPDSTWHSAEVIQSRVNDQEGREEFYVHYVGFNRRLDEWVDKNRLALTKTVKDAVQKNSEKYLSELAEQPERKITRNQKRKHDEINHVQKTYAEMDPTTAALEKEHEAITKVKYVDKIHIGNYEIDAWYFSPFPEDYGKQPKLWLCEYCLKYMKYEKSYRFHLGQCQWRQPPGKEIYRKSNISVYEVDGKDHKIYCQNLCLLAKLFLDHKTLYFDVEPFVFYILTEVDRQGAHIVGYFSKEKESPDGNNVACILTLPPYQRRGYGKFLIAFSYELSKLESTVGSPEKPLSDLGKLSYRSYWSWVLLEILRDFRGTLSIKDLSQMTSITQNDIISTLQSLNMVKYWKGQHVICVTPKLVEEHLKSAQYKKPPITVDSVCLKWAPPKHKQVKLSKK
Assay: Inhibition of recombinant N-terminal His6-tagged KAT8 (unknown origin) expressed in Escherichia Coli BL21 DE3 cells assessed as reduction of Co A level using histone H4 substrate after 15 mins by CPM fluorescence assay

| SMILES | IC50 |
| --- | --- |
| CC1=NN(c2ccc(C(=O)O)cc2)C(=O)/C1=C/c1ccc(-c2cc(C)c(C)cc2[N+](=O)[O-])o1 | > 631 µM |
| CCCCCCCCCCCCCCCc1ccc(O)c(C(=O)O)c1 | 263 µM |
| O=C(O)c1c(O)cccc1CCCCCCCCCCCO | 525 µM |
| O=C(O)c1c(O)cccc1CCCCCO | > 631 µM |

Continued, values first:

| IC50 | SMILES |
| --- | --- |
| 123 µM | CCCCCCCCCCc1cccc(O)c1C(=O)O |
| 191 µM | CCCCCCCCCCc1ccc(O)c(C(=O)O)c1 |
| > 631 µM | CCCCCc1ccc(O)c(C(=O)O)c1 |
| > 631 µM | CCCCCCCSCC(=O)c1ccccc1O |
| > 631 µM | CCCCCc1cccc(O)c1C(=O)O [6-Pentylsalicylic Acid] |

— BindingDB's records for doi:10.1016/j.ejmech.2015.10.016 (University of Groningen, 2015)
